# Results reported in the supplement of paper PMC10307832.
# How the values were obtained:
# Test in all cases: relative viability (nuclei count vs DMSO), 5 days (fraction); higher = more cells survive
# [1] = compound: CCN1CCC(CC1)N2C=C(N=N2)CNC3=CC4=C(C(=CN=C4C(=C3)Cl)C#N)NC5=CC(=C(C=C5)F)Cl [KIN001-266] + CC(C)C[C@H](NC(=O)[C@H](Cc1ccccc1)NC(=O)c1cnccn1)B(O)O [Bortezomib] (partner 0.002 µM)
# How it was run: (§1)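 For relative viability, nuclei counts in treated wells were divided by those in vehicle wells. Lung cancer cell lines had been pin-tool dosed in 1536-well plates the day after seeding and cultured for 5 days, then fixed and stained in one step (final 0.05% Triton X-100, 1% formaldehyde, 1 ug/ml Hoechst) and imaged at 4×. Doses were one drug alone or a fixed anchor-drug dose plus five library-drug doses (not always all listed) in √10 steps, and values are duplicate-plate medians.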
# [2] = compound: CCN1CCC(CC1)N2C=C(N=N2)CNC3=CC4=C(C(=CN=C4C(=C3)Cl)C#N)NC5=CC(=C(C=C5)F)Cl [KIN001-266] + CC(=O)c1c(C)c2cnc(Nc3ccc(N4CCNCC4)cn3)nc2n(C2CCCC2)c1=O [Palbociclib] (partner 0.5 µM)
# How it was run: as §1
# [3] = compound: CCN1CCC(CC1)N2C=C(N=N2)CNC3=CC4=C(C(=CN=C4C(=C3)Cl)C#N)NC5=CC(=C(C=C5)F)Cl [KIN001-266] + COc1cc2c(Oc3ccc(NC(=O)C4(C(=O)Nc5ccc(F)cc5)CC4)cc3F)ccnc2cc1OCCCN1CCOCC1 [Foretinib] (partner 0.25 µM)
# How it was run: as §1
# [4] = compound: CCN1CCC(CC1)N2C=C(N=N2)CNC3=CC4=C(C(=CN=C4C(=C3)Cl)C#N)NC5=CC(=C(C=C5)F)Cl [KIN001-266] + CS(=O)(=O)N1CCN(Cc2cc3nc(-c4cccc5[nH]ncc45)nc(N4CCOCC4)c3s2)CC1 [Pictilisib] (partner 1 µM)
# How it was run: as §1
Cell Line,relative viability ([1]; first compound 0.08 µM),relative viability ([1]; first compound 0.253 µM),relative viability ([1]; first compound 0.8 µM),relative viability ([1]; first compound 2.53 µM),relative viability ([1]; first compound 8 µM),relative viability ([2]; first compound 0.08 µM),relative viability ([2]; first compound 0.253 µM),relative viability ([2]; first compound 0.8 µM),relative viability ([2]; first compound 2.53 µM),relative viability ([2]; first compound 8 µM),relative viability ([3]; first compound 0.08 µM),relative viability ([3]; first compound 0.253 µM),relative viability ([3]; first compound 0.8 µM),relative viability ([3]; first compound 2.53 µM),relative viability ([3]; first compound 8 µM),relative viability ([4]; first compound 0.08 µM),relative viability ([4]; first compound 0.253 µM),relative viability ([4]; first compound 0.8 µM),relative viability ([4]; first compound 2.53 µM),relative viability ([4]; first compound 8 µM)
HCC-15,1.01,1.04,0.868,0.864,0.662,0.707,0.806,0.593,0.608,0.509,0.913,0.964,0.886,0.817,0.707,0.769,0.765,0.594,0.674,0.472
HCC-44,0.944,0.867,0.815,0.852,0.864,1.06,0.973,0.95,0.949,1.03,–,–,–,–,–,0.657,1.76,0.593,0.636,0.57
HCC-78,0.57,0.261,0.464,0.495,0.616,0.506,0.518,0.476,0.431,0.415,0.529,0.588,–,0.575,0.527,0.234,0.193,0.174,0.253,0.259
IA-LM,0.838,0.729,0.94,0.736,0.674,–,–,–,–,–,1.03,1.17,1.41,1.19,0.891,0.336,0.364,0.274,0.348,0.317
LK-2,–,–,–,–,–,0.794,0.691,0.797,0.589,0.67,1.12,1.31,1.2,1.03,1.28,0.563,–,0.537,–,0.551
NCI-H358,–,–,–,–,–,0.138,0.126,0.137,0.133,0.171,0.728,0.734,0.629,0.631,0.397,0.382,0.355,0.343,0.3,0.316
NCI-H522,–,–,–,–,–,1.04,1.07,0.952,0.95,0.804,–,–,–,–,–,–,–,–,–,–
NCI-H596,0.919,1.17,1.05,1.04,0.947,–,–,–,–,–,0.963,0.986,0.901,0.775,0.737,0.407,0.401,0.385,0.4,0.38
NCI-H1395,–,–,–,–,–,0.671,0.614,0.648,0.602,0.616,0.984,0.93,0.952,0.939,0.914,0.693,0.843,0.614,0.522,0.575
NCI-H1563,0.951,0.982,0.846,0.855,0.809,–,–,–,–,–,0.925,0.862,0.941,0.985,0.904,0.662,0.636,0.636,0.656,0.677
NCI-H1648,–,–,–,–,–,0.298,0.277,0.277,0.281,0.261,–,–,–,–,–,–,–,–,–,–
NCI-H1703,0.378,0.317,0.296,0.273,0.291,–,–,–,–,–,0.367,–,0.37,0.359,0.366,0.287,0.23,0.234,0.211,0.223
NCI-H1792,0.962,0.927,0.879,0.917,0.948,0.675,0.719,0.637,0.681,0.638,–,–,–,–,–,0.312,0.282,0.325,0.305,0.265
NCI-H1793,–,–,–,–,–,0.316,0.358,–,0.354,0.307,0.598,0.812,0.718,0.883,0.705,0.287,0.332,0.305,0.253,0.322
NCI-H1944,–,–,–,–,–,0.338,0.355,0.319,0.361,0.351,0.898,0.806,0.886,0.911,0.882,0.363,0.363,0.333,0.356,0.352
NCI-H2170,–,–,–,–,–,0.375,0.433,0.365,0.407,0.373,0.984,1.03,1.01,0.987,0.976,0.372,0.392,0.344,0.296,0.3
NCI-H2342,–,–,–,–,–,0.52,0.518,0.471,0.597,0.575,1.09,1.04,1.17,1.15,1.07,–,–,–,–,–
SK-MES-1,–,–,–,–,–,0.331,0.352,0.28,0.336,0.316,0.845,0.884,0.828,0.885,0.828,0.304,0.351,0.37,0.408,0.316
SW 900,–,–,–,–,–,0.558,0.498,0.611,0.555,0.268,1.08,0.987,0.908,0.835,0.697,–,–,–,–,–
